Measured values taken from patent US20180193336A1, “SPRAY DRY FORMULATIONS” (Pulmokine, Inc., priority 2013, published 2018).

Experiments:
rat MCT+PN model = assay: Pulmonary arteriole morphometry and occlusion analysis in rat MCT+PN model; assay type: in vivo
Source text: At the end of the study, the heart and lungs were removed from ventilated animals under general anesthesia. Heparinized saline was infused under pressure through the main pulmonary artery. The right upper lobe was immediately tied off and placed in liquid nitrogen for Western blot and NanoPro 100 assay analysis. The heart was removed, and the RV free wall, interventricular septum and LV free wall dissected and weighed. Buffered formalin (10%) was infused under pressure both through the pulmonary artery and the trachea. Morphometric analysis was performed on H&E stained formalin fixed tissue sectioned at 8 μm. The media area and lumen area of pulmonary arterioles were measured with Image J software by a technician blinded to treatment group. Measurements were made on 20 pulmonary arterioles per section. The ratio of the lumen area to the total media area was determined. This ratio normalizes the variation in total pulmonary arteriole area. In addition, occlusive analysis was performed in the monocrotaline plus pneumonectomy study (specifically efficacy study 5) according to the method of Homma et al., “Involvement of RhoA/Rho kinase signaling in protection against monocrotaline-induced pulmonary hypertension in pneumonectomized rats by dehydroepiandrosterone.” Am J Physiol Lung Cell Mol Physiol. Vol. 295:L71-8 (2008). Briefly, pre-capillary arterioles were assigned grade 0 for no evidence of neointimal lesions, grade 1 for less than 50% luminal occlusion, and grade 2 for greater than 50% occlusion. Masson Trichrome stains were performed on lung sections from the MCT+PN model.

[1] = Systemic blood pressure study in ambulatory MCT treated rats; assay type: in vivo, rat
Protocol: The effect of PK10453 (Structure 2) on systemic BP was studied in ambulatory MCT treated rats with DSI PAC40 transmitters implanted in the descending aorta. […] Blood pressure was recorded before each morning dose.

[2] = system: phosphorylated AKT, STAT3 and ERK1/2 in lung extracts; assay: NanoPro immunoassay of lung extracts, rat MCT+PN model; assay type: in vivo
Protocol: Relative differences in phosphorylated ERK1/2 and STAT isoforms were measured with a anoProlOO® immunoassay system (Protein Simple/Cell Biosciences, CA). See Fan et al., “Nanofluidic proteomic assay for serial analysis of oncoprotein activation in clinical specimens.” Nat Med 15:566-571 (2009).

Question: Which “Grade 2 occlusion lesions” value (rat MCT+PN model; D4) does the source give for COc1cc(-c2cncc(N[C@@H](C)c3cccc(NC(=O)c4cncc(C)c4)c3)n2)ccc1O [PK10453, (S)—N-(3-(1-((6-(4-hydroxy-β-methoxyphenyl)pyrazin-2yl)amino)ethyl)phenyl)-5-methylnicotinamide] here?
Answer: 28.5±4.2%

Question: What about the “lumen area to media area ratio (L/M)” value (rat MCT+PN model; D4, FIG. 7 PANEL C) of the same compound?
Answer: 0.33±0.06

Question: What about the “Grade 2 occlusion lesions” value (rat MCT+PN model; D8) of the same compound?
Answer: 11.4±4.1%

Question: What about the “lumen area to media area ratio (L/M)” value (rat MCT+PN model; D8, FIG. 7 PANEL C) of the same compound?
Answer: 0.72±0.05

Question: What about the “lumen area to media area ratio (L/M)” value (rat MCT+PN model; higher dose D8, FIG. 9) of the same compound?
Answer: 1.17±0.07

Question: And the “lumen area to media area ratio (L/M)” value (rat MCT+PN model; lower dose D4, FIG. 9)?
Answer: 0.75±0.14

Question: What about the “systolic BP” value ([1]; MCT rats, day seven of treatment, 4 min exposure 3×/d) of the same compound?
Answer: 131±10 mmHg

Question: And the “effect on systemic BP” value ([1]; rat MCT model)?
Answer: did not have an adverse effect

Question: And the “pAKT(Ser473)/AKT ratio in lung extracts” value [2]?
Answer: significant reduction

Question: What about the “pERK1/ERK1 in lung homogenates” value ([2]; D4 and D8 compared to vehicle) of the same compound?
Answer: significant reductions

Question: And the “pSTAT3/STAT3 ratio in lung” value ([2]; D4 and D8 compared to vehicle)?
Answer: significant reduction

Question: What about the “ppERK1/ERK1 in lung homogenates” value ([2]; D4 and D8 compared to vehicle) of the same compound?
Answer: significant reductions

Question: And the “pAKT(Thr308)/AKT ratio in lung extracts” value ([2]; V, D4, D8)?
Answer: not significantly different
